In US9364405B2, “Tyrosinase inhibitors” (Avon Products, Inc., priority 2013, dated 2016):

Tested on: Mushroom tyrosinase
Assay: Mushroom tyrosinase assay
Format: biochemical
Settings: L-Tyrosine substrate, 25° C., 30 min
Protocol: Mushroom tyrosinase and L-Tyrosine were obtained from Sigma-Aldrich, Inc. (St. Louis, Mo.). The enzyme activity was measured in buffer containing 100 mM phosphate buffer pH 6.8, 5% absolute ethanol, 2 micrograms/milliliter mushroom tyrosinase, and 0.2 mg/ml L-Tyrosine. The reaction (conversion of L-Tyrosine to DOPAchrome) was conducted in triplicates at 25° C. for 30 min, and absorbance was then measured at 492 nm. Kojic Acid was used as a positive control inhibitor in these assays. Percent change in tyrosinase activity relative to vehicle control was calculated.

[1] = test compound concentration 0.0010%

| Compound | Tyrosinase Inhibition (percent change in tyrosinase activity compared to DMSO vehicle control) [1] | Tyrosinase Inhibition (percent change in tyrosinase activity compared to DMSO vehicle control) (test compound concentration 0.0100%) |
| --- | --- | --- |
| CN1CCN(c2nc(-c3ccc(O)cc3O)cs2)CC1 [AV5370] | −75% | −59% |
| Cc1cc(C)cc(Nc2nc(-c3ccc(O)cc3O)cs2)c1 [AV4662] | −46% |  |
